This passage reports GI50 and TGI results from PubChem BioAssay (NCI).

Common to all, as to test: DTP human tumour cell line panel, 48 h
The subject of experiment [1] is EKVX NSCLC.
Experiment [2] deals with TK-10 renal.
For experiment [3], the system named is HL-60(TB) leukemia.
The test system of experiment [4] is UACC-257 melanoma.
In experiment [5] the test system is OVCAR-4 ovarian.
In experiment [6] the test system is CCRF-CEM leukemia.
In experiment [7] the test system is HOP-62 NSCLC.
Experiment [8] relates to HCC-2998 colon.
The subject of experiment [9] is MCF7 breast.
Experiment [10] concerns SF-539 CNS.

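Each compound was tested at five concentrations against cells in 96-well plates for 48 hours. GI50 = concentration required for 50% inhibition of growth. TGI: total growth inhibition.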 Where only a bound is given, the exact number is not on record here.

Regarding `COc1cccc2c1C(=O)c1c(O)c3c(c(O)c1C2=O)C[C@@](O)(C(=O)CO)C[C@@H]3O[C@H]1C[C@H](N)[C@@H](O)[C@H](C)O1`, the GI50 – broadly, the concentration that inhibits growth by half – in experiment [1] is 1.2 µM; in [3] it was 0.145 µM; in experiment [4], 0.431 µM; in experiment [5], 0.546 µM; in experiment [6], 0.0919 µM; in experiment [7], 0.16 µM. In addition, the values for the GI50 in experiment [8] and in experiment [9] were 0.161 µM and 0.0247 µM, respectively. Besides, the TGI (in general, the concentration giving total growth inhibition) is 16.1 µM in experiment [1]; 10.5 µM in [2]; 1.01 µM in [3]; 1.82 µM in experiment [4]; 5.87 µM in [5]; 0.95 µM in experiment [6]. Besides, the total growth inhibition concentration (TGI) was 2.37 µM in experiment [7], 1.29 µM in experiment [8] and 14 µM in [9].
With `O=C1C=CC[C@H](/C=C/c2ccccc2)O1`, the GI50 in experiment [1] is 6.48 µM; in experiment [2], 11.5 µM; in experiment [10], 0.813 µM; in experiment [4], 9.81 µM; in experiment [5], 1.39 µM; in [6], 9.5 µM. The GI50 in experiment [7] is 7.44 µM; in [8], 0.642 µM; in experiment [9] it was 1.65 µM. Further, the total growth inhibition concentration (TGI) in experiment [1] was greater than 50.1 µM; in experiment [2], greater than 53.2 µM; in [10] it was 8.24 µM; in experiment [3], greater than 34 µM; in experiment [4], 26.9 µM; in [5], 10.7 µM. The concentration for total growth inhibition (TGI) in [6] is greater than 50.2 µM; in experiment [7], greater than 61.6 µM; in experiment [8] it was 3.42 µM; in [9], greater than 37.8 µM.
In the case of `COC(=O)C1CCCN1C(=O)[C@@H]1CCCN1C(=O)[C@H](Cc1c[nH]c2ccccc12)NC(=S)Nc1cc(C(F)(F)F)cc(C(F)(F)F)c1` (stereo partly drawn), the GI50 is 1.91 µM in experiment [1]; 2.11 µM in experiment [2]; 2.43 µM in experiment [10]; 2.35 µM in [3]; 2.4 µM in experiment [4]; 3.18 µM in experiment [5]. Besides, the GI50 in experiment [6] was 2.75 µM; in [7], 2.17 µM; in experiment [8], 1.96 µM; in [9] it was 2.19 µM. In addition, the total growth inhibition concentration (TGI) in [1] is 7.83 µM; in experiment [2], 5 µM; in experiment [10] it was 5.85 µM; in experiment [3], 5.95 µM; in experiment [4], 8.17 µM; in experiment [5] it was 11.2 µM. Also, the TGI in [6] came out at 8.55 µM; in [7] it was 6.5 µM; in [8] it was 4.5 µM; in experiment [9] it was 6 µM.
For `Nc1nc(N)c2c(n1)NC(c1ccc(F)cc1)C1CCc3ccccc3C1=N2` (stereo not drawn), the GI50 in experiment [1] is 2.83 µM; in [2], 3.63 µM; in experiment [10] it was 10.5 µM; in experiment [4], 5.37 µM; in experiment [5] it was 3.98 µM; in experiment [7], 6 µM. In addition, the GI50 is 2.44 µM in experiment [8] and 2.67 µM in experiment [9]. Further, the TGI came out at 14.6 µM in experiment [1]; 16.9 µM in experiment [2]; 22.4 µM in experiment [10]; 17.8 µM in experiment [4]; 18.2 µM in [5]; 19.8 µM in experiment [7]. Also, the figures for the TGI in experiment [8] and in experiment [9] were 6.67 µM and 11 µM, respectively.
For the compound `CN1C(=O)C(CC(=O)O)NC1=S` (stereo not drawn), the TGI in [1], in [2], in [10], in experiment [3], in [4] and in experiment [6] was greater than 100 µM throughout. Besides, the TGI in [7], in [8] and in experiment [9] was greater than 100 µM each time.
Turning to `O=C(O)C1C(C(=O)O)C23CC2(C(=O)O)C2(C(=O)O)CCC3=C3CCCC312` (stereo not drawn), the concentration for total growth inhibition (TGI) was found to be 54.3 µM in [1]; 38.1 µM in experiment [2]; 34.8 µM in experiment [10]; 18.3 µM in experiment [3]; 15.4 µM in [4]; 80.6 µM in experiment [5]. Also, the concentration for total growth inhibition (TGI) in experiment [7] was 22.4 µM; in experiment [9] it was 63.3 µM.
In the case of `CN(C)CCCN1c2ccccc2C(C)(C)c2ccccc21`, the TGI was 32.6 µM in experiment [1]; 27.2 µM in experiment [2]; 28.4 µM in [10]; 33.6 µM in experiment [3]; 23.9 µM in experiment [4]; 28.2 µM in [5]. Besides, the TGI in experiment [6] came to 53.5 µM; in experiment [7], 31.5 µM; in experiment [9] it was 28 µM.
Take `O=Cc1ccccc1B(O)O`: the concentration for total growth inhibition (TGI) in experiment [2] was greater than 100 µM; in [10] it was greater than 100 µM; in experiment [3] it was greater than 100 µM; in [4] it was greater than 100 µM; in experiment [5], greater than 100 µM; in experiment [6], 40 µM. For the same compound, the TGI in experiment [7] and in experiment [9] was greater than 100 µM each time.
In the case of `OC(CNCC1CCCO1)Cn1c2ccc(Cl)cc2c2cc(Cl)ccc21` (stereo not drawn), the GI50 in experiment [2] was 2.05 µM; in [10], 1.66 µM; in experiment [3], 2.3 µM; in [4], 1.64 µM; in experiment [5], 1.75 µM; in [6] it was 2.28 µM. Further, the GI50 is 1.72 µM in [7], 1.71 µM in [8] and 1.72 µM in [9]. Further, the concentration for total growth inhibition (TGI) was found to be 3.75 µM in [2]; 3.13 µM in experiment [10]; 5.51 µM in experiment [3]; 3.13 µM in experiment [4]; 4.32 µM in experiment [5]; 4.99 µM in experiment [6]. The concentration for total growth inhibition (TGI) in experiment [7] is 3.39 µM; in experiment [8] it was 3.15 µM; in experiment [9] it was 3.25 µM.
On to `O=c1oc2cc(N=Cc3ccc4c(c3)OCO4)ccc2c2ccccc12`, for which the TGI in experiment [1] was 50.6 µM; in experiment [2] it was greater than 100 µM; in experiment [10] it was greater than 100 µM; in [3], greater than 100 µM; in experiment [4] it was greater than 100 µM; in [5], greater than 100 µM. For the same compound, the total growth inhibition concentration (TGI) in experiment [6], in experiment [7] and in experiment [9] was greater than 100 µM each time.
